The values that follow come from patent US8735406B2, “8-oxodihydropurine derivative” (Dainippon Sumitomo Pharma Co., Ltd., priority 2009, dated 2014).

For orientation: inhibition means the change of the read-out against control, counted positive when it falls. By IC50 is commonly meant the concentration at which inhibition is half-maximal.

Where two headings read alike, the source gives them in different places. Bounds are passed on as bounds.

In this test the target is T1, FAAH (Rattus norvegicus, UniProt P97612).
T1 construct: Preparation of Rat Brain Membranes Preparations (FAAH Enzyme Solution); from tissue; host or cells: rat cerebrum (brain membrane preparation)
T1 sequence (P97612 1-579): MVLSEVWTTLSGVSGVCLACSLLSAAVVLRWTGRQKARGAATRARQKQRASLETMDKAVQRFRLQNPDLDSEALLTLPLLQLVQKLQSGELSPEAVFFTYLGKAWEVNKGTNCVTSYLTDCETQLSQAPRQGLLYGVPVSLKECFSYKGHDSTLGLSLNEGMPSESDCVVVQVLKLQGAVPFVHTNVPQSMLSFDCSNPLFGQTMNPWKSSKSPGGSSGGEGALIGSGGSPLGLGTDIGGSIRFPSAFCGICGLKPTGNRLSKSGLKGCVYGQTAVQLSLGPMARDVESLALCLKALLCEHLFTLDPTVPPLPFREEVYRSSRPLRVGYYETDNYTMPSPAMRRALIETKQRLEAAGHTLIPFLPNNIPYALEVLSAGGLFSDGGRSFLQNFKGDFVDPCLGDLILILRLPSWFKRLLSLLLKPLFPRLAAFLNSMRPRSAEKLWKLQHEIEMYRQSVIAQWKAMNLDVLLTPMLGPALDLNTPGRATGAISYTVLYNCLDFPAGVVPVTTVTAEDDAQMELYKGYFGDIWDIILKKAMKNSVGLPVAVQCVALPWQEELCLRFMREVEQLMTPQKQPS
In words: Determination of FAAH inhibitory activity in rat (rat brain membrane preparations, [3H]-anandamide hydrolysis). Type of test: biochemical. The following applies: for inhibition at 0.1 µM: read-out: FAAH Inhibition, Inhibition Rate at 100 nM; for IC50: test substance 0.1 nM to 1 μM. Here is the method:
Determination of FAAH Inhibitory Activity in Rat
The preparation of rat brain membranes preparations and the determination of FAAH inhibitory activity were carried out according to the Jonsson et al. method [Br. J. Pharmacol., 133, 1263 (2001)].
(1) Preparation of Rat Brain Membranes Preparations (FAAH Enzyme Solution)
The cerebrum was extracted from rats and was freeze-stored at −80° C. To the frozen cerebrum was added 4° C. enzyme homogenization buffer (20 mM HEPES-buffer pH 7.0, 1 mM MgCl2) and the mixture was homogenized using a homogenizer in ice and the homogenates were centrifuged (36,000×g for 20 minutes). After repeating operations of homogenization and centrifugation, the tissue pellets were re-suspended with 4° C. enzyme homogenization buffer. The re-suspensions were incubated at 37° C. for 15 minutes and were centrifuged (36,000×g for 20 minutes), and the resulting tissue membranes were then re-suspended with enzyme solution preparation buffer (50 mM Tris-HCl buffer pH 7.4, 1 mM EDTA, 3 mM MgCl2). The protein concentration in the resulting membrane preparations were determined according to a colorimetry method (BCA Protein Assay: Pierce Inc.) and the preparations were freeze-stored at −80° C. until used for assay.
(2) Screening of Substances for Inhibiting FAAH Activity
To the above membrane preparations (final concentration 100 μg/mL) were added a solution of test substances in DMSO (final concentration in DMSO 1%) and an assay buffer (for final preparation; 22 mM Tris-HCl (pH 7.6), 1.4 mM EDTA, 1.5% BSA, 0.6 mM MgCl2) and the resulting mixtures were preincubated at 37° C. for 10 minutes. Thereto was added a substrate solution (for final preparation; 2 nM [^3H]-Anandamide (American Radiolabeled Chemicals Inc.)+2 μM Anandamide (Sigma-Aldrich Co.)) (final assay volume of 200 μL) and the resulting mixtures were incubated at 37° C. for 10 minutes. Here in control experiment, DMSO was added instead of the solution of test substance in DMSO. Also in blank experiment, DMSO was added instead of the solution of test substance in DMSO and an enzyme solution preparation buffer was also added instead of the membrane preparations. After the incubation, thereto was added a 400 μL ice-cooled solution of chloroform and methanol (1:1 ratio by volume) and the resulting mixtures were stirred. An ethanolamine (ethanolamine-1-[^3H]) as a decomposed product was separated into an upper layer (water/methanol layer) by centrifugation (1,000×g for 10 minutes). The upper layer 200 μL was transferred into 96 well Deepwell Luma Plate-96 (PerkinElmer Inc.) and the radioactivity was measured by microplate scintillation counter (TopCount NXT™: […].). The substances showing a lower measured value compared to those of control were selected as the compound having a FAAH inhibitory activity.
(3) Determination of IC50 Value
The test substances were prepared such that the final concentration of the compounds is within the range of 0.1 nM to 1 μM and were then examined on the effect on FAAH activity according to the above-mentioned protocol.

Setting [1] is: rat brain membrane preparations, 100 nM test substance.
The mark [2] stands for this setting: rat brain membrane preparations, read-out: FAAH Inhibition IC50.

With `CCN(CC)C(=O)n1c(=O)n(C)c2nc(-c3cccc(OC)c3)ncc21` [Example 70], the inhibition at 0.1 µM under setting [1] came out at 41%. For the same compound, the IC50 under setting [2] is above 100 nM.
For `COc1cccc(-c2ncc3c(n2)n(C)c(=O)n3C(=O)N(C)Cc2ccc(F)cc2)c1` [Example 71, N-(4-Fluorobenzyl)-2-(3-methoxyphenyl)-N,9-dimethyl-8-oxo-8,9-dihydro-7H-purine-7-carboxamide], in that order: 103% and 9 nM.
For `COc1cccc(-c2ncc3c(n2)n(C)c(=O)n3C(=O)N(C)Cc2cccc(F)c2)c1` [Example 72, N-(3-Fluorobenzyl)-2-(3-methoxyphenyl)-N,9-dimethyl-8-oxo-8,9-dihydro-7H-purine-7-carboxamide], in that order: 99% and 23 nM.
For `COc1cccc(CN(C)C(=O)n2c(=O)n(C)c3nc(-c4cccc(OC)c4)ncc32)c1` [Example 73, N-(3-Methoxybenzyl)-2-(3-methoxyphenyl)-N,9-dimethyl-8-oxo-8,9-dihydro-7H-purine-7-carboxamide], in that order: 89% and 45 nM.
For `COc1cccc(-c2ncc3c(n2)n(C)c(=O)n3C(=O)N(C)CCc2ccc(F)cc2)c1` [Example 74, N-[2-(4-Fluorophenyl)ethyl]-2-(3-methoxyphenyl)-N,9-dimethyl-8-oxo-8,9-dihydro-7H-purine-7-carboxamide], the inhibition at 0.1 µM came out at 104%. Under setting [2], the IC50 was below 1 nM.
For `COc1cccc(-c2ncc3c(n2)n(C)c(=O)n3C(=O)N(C)CCc2cccc(F)c2)c1` [Example 75, N-[2-(3-Fluorophenyl)ethyl]-2-(3-methoxyphenyl)-N,9-dimethyl-8-oxo-8,9-dihydro-7H-purine-7-carboxamide], in that order: 103% and below 1 nM.
In the case of `COc1cccc(-c2ncc3c(n2)n(C)c(=O)n3C(=O)N(C)CCc2cccc(Cl)c2)c1` [Example 76, N-[2-(3-Chlorophenyl)ethyl]-2-(3-methoxyphenyl)-N,9-dimethyl-8-oxo-8,9-dihydro-7H-purine-7-carboxamide], the inhibition at 0.1 µM was 102%. This compound displayed an IC50 (FAAH Inhibition IC50, rat brain membrane preparations) of 3 nM.
With `COc1cccc(-c2ncc3c(n2)n(C)c(=O)n3C(=O)N(C)CCOc2ccc(Cl)cc2)c1` [Example 77, N-[2-(4-Chlorophenoxy)ethyl]-2-(3-methoxyphenyl)-N,9-dimethyl-8-oxo-8,9-dihydro-7H-purine-7-carboxamide], the inhibition at 0.1 µM under setting [1] was determined as 116%. Moreover, the IC50 under setting [2] came out at 3 nM.
For `COc1cccc(-c2ncc3c(n2)n(C)c(=O)n3C(=O)N(C)Cc2ccc(Cl)cc2)c1` [Example 78, N-(4-Chlorobenzyl)-2-(3-methoxyphenyl)-N,9-dimethyl-8-oxo-8,9-dihydro-7H-purine-7-carboxamide], in that order: 108% and 10 nM.
For `COc1cccc(-c2ncc3c(n2)n(C)c(=O)n3C(=O)N(C)Cc2cccc(Cl)c2)c1` [Example 79, N-(3-Chlorobenzyl)-2-(3-methoxyphenyl)-N,9-dimethyl-8-oxo-8,9-dihydro-7H-purine-7-carboxamide], in that order: 87% and 51 nM.
For `COc1ccc(CN(C)C(=O)n2c(=O)n(C)c3nc(-c4cccc(OC)c4)ncc32)cc1` [Example 80, N-(4-Methoxybenzyl)-2-(3-methoxyphenyl)-N,9-dimethyl-8-oxo-8,9-dihydro-7H-purine-7-carboxamide], in that order: 92% and 44 nM.
Regarding `COc1cccc(-c2ncc3c(n2)n(C)c(=O)n3C(=O)N(C)Cc2ccc(C(F)(F)F)cc2)c1` [Example 81, 2-(3-Methoxyphenyl)-N,9-dimethyl-8-oxo-N-[4-(trifluoromethyl)benzyl]-8,9-dihydro-7H-purine-7-carboxamide], under setting [1], the inhibition at 0.1 µM is 94%. Moreover, the IC50 under setting [2] stood at 11 nM.
For `COc1cccc(-c2ncc3c(n2)n(C)c(=O)n3C(=O)N(C)Cc2cccc(C(F)(F)F)c2)c1` [Example 82, 2-(3-Methoxyphenyl)-N,9-dimethyl-8-oxo-N-[3-(trifluoromethyl)benzyl]-8,9-dihydro-7H-purine-7-carboxamide], in that order: 90% and 36 nM.
For `COc1cccc(-c2ncc3c(n2)n(C)c(=O)n3C(=O)N(C)Cc2ccc(OC(F)(F)F)cc2)c1` [Example 83, 2-(3-Methoxyphenyl)-N,9-dimethyl-8-oxo-N-[4-(trifluoromethoxy)benzyl]-8,9-dihydro-7H-purine-7-carboxamide], in that order: 93% and 25 nM.
Take `COc1cccc(-c2ncc3c(n2)n(C)c(=O)n3C(=O)N2CCN(Cc3ccc(F)cc3)CC2)c1` [Example 84, 7-{[4-(4-Fluorobenzyl)piperazin-1-yl]carbonyl}-2-(3-methoxyphenyl)-9-methyl-7,9-dihydro-8H-purine-8-one]: the inhibition at 0.1 µM is 98%. The IC50 under setting [2] was 13 nM.
For `COc1cccc(-c2ncc3c(n2)n(C)c(=O)n3C(=O)N2CCN(Cc3cccc(F)c3)CC2)c1` [Example 85, 7-{[4-(3-Fluorobenzyl)piperazin-1-yl]carbonyl}-2-(3-methoxyphenyl)-9-methyl-7,9-dihydro-8H-purine-8-one], in that order: 93% and 31 nM.
For `COc1cccc(-c2ncc3c(n2)n(C)c(=O)n3C(=O)N2CCN(Cc3ccc(Cl)cc3)CC2)c1` [Example 86, 7-{[4-(4-Chlorobenzyl)piperazin-1-yl]carbonyl}-2-(3-methoxyphenyl)-9-methyl-7,9-dihydro-8H-purine-8-one], in that order: 96% and 22 nM.
For `COc1cccc(-c2ncc3c(n2)n(C)c(=O)n3C(=O)N2CCN(Cc3cccc(Cl)c3)CC2)c1` [Example 87, 7-{[4-(3-Chlorobenzyl)piperazin-1-yl]carbonyl}-2-(3-methoxyphenyl)-9-methyl-7,9-dihydro-8H-purine-8-one], in that order: 99% and 10 nM.
Consider `COc1cccc(-c2ncc3c(n2)n(C)c(=O)n3C(=O)N(C)Cc2ccccc2)c1` [Example 88, N-Benzyl-2-(3-methoxyphenyl)-N,9-dimethyl-8-oxo-8,9-dihydro-7H-purine-7-carboxamide], for which, under setting [1], the inhibition at 0.1 µM is 93%. In addition, the IC50 under setting [2] worked out at 43 nM.
With `COc1cccc(-c2ncc3c(n2)n(C)c(=O)n3C(=O)N2CCN(Cc3ccc(C(F)(F)F)cc3)CC2)c1` [Example 89, 2-(3-Methoxyphenyl)-9-methyl-7-({4-[4-(trifluoromethyl)benzyl]piperazin-1-yl}carbonyl)-7,9-dihydro-8H-purine-8-one], the inhibition at 0.1 µM was 92%. The IC50 under setting [2] was 44 nM.
Regarding `COc1cccc(-c2ncc3c(n2)n(C)c(=O)n3C(=O)N(C)CCOc2cccc(Cl)c2)c1` [Example 90, N-[2-(3-Chlorophenoxy)ethyl]-2-(3-methoxyphenyl)-N,9-dimethyl-8-oxo-8,9-dihydro-7H-purine-7-carboxamide], under setting [1], the inhibition at 0.1 µM amounted to 105%. Besides, the IC50 under setting [2] was determined as 2 nM.
